Data published in patent US20240417435A1, “DEFENSIN-DERIVED PEPTIDE WITH ANTIBACTERIAL ACTIVITY ALSO AGAINST MULTI-ANTIBIOTIC-RESISTANT BACTERIA” (priority 2021, published 2024).
Values after ≈ are worked out from the molar mass of the structure shown. Where a SMILES comes first, the peptide text is derived from it.

Legend:
MRSA strain 1 = assay type: cell-based, Staphylococcus aureus
Method: (§1) The antimicrobial activity of peptide γ2 was evaluated versus Pseudomonas aeruginosa ATCC 27853, Escherichia coli ATCC 13762 and Staphylococcus aureus ATCC 6538, and versus multidrug-resistant (MDR) clinical isolates of Methicillin-Resistant Staphylococcus aureus (MRSA), extended-spectrum β-lactamase (ESBL)-producing E. coli, P. aeruginosa and Acinetobacter baumannii complex. The isolates were identified by mass spectrometry using the MALDI (matrix-assisted laser desorption/ionisation) mass spectrometer and the biochemical phenotyping method in a VITEKR 2 bioMérieux system (bioMérieux Italia S.p.a., Bagno a Ripoli, Florence, Italy), according to the manufacturer's instructions. The antibiotic susceptibility profile was evaluated with the VITEKR 2 bioMérieux System. The microorganisms were cultured in broth and agar at 37° C. The media used were BD Brain Heart Infusion broth (BHI) (BD, Franklin Lakes, NJ, USA) and BHI agar (OXOID, Basingstoke, Hampshire, UK), BD Trypticase Soy agar with 5% sheep's blood and MacConkey agar (OXOID, Basingstoke, Hampshire, UK). The isolates were stored frozen at −80° C. in BHI broth supplemented with 10% (v/v) glycerol (Carlo Erba Reagents, Milan, Italy) until use, and the work cultures were activated in the respective broths at 37° C. for 15-18 h.
(§2) Assays of the antibacterial activity of peptide γ2, in both reduced and oxidised form, were conducted against P. aeruginosa ATCC 27853, E. coli ATCC 13762, S. aureus ATCC 6538 and MDR clinical isolates. The strains were cultured under aerobic conditions in BHI broth at 37° C. and incubated with peptide γ2 for 2 hours at 37° C. Various concentrations of peptide were used, ranging from 1 μM to 128 μM. Each test was conducted in triplicate with three independent cultures. The minimum inhibitory concentration (MIC) and the minimum bactericidal concentration (MBC) of the peptide were determined with a modified version of the Clinical and Laboratory Standards Institute broth microdilution assay, using a final inoculum concentration of 10^5 CFU/ml, as previously described (Scudiero O et al., Antimicrob Agents Chemother 2010; 54:2312-22; Scudiero O et al. Antimicrob Ag Chemother 2013; 57:1701-8).
(§3) The MIC is indicated by the concentration interval, which comprise the upper growth limit and the first concentration which could not support visible bacterial growth after incubation. The MBC was defined as the lowest concentration at which no viable colonies were observed. The peptide concentrations were 128.0, 64.0, 32.0, 16.0, 8.0, 4.0, 2.0 and 1 μM. For the time-kill studies against the ATCC and MDR strains, the bacteria were cultured in BHI broth until the late log growth phase at 37° C. The bacterial suspensions, containing about 10^6 CFU/ml (adjusted by the spectrophotometer to OD600 nm), were diluted 1:100 in PBS1× and then incubated at 37° C. with or without the peptide, selected at concentrations corresponding to 1, 2 and 4×MIC (as determined above). At baseline and 1, 2, 3 and 5 hours after incubation, a portion of each sample was harvested, diluted in series in PBS1× and seeded on BHI agar. The plates were incubated for […] at 37° C., and the viable bacteria count was conducted by the CFU method. All the data were expressed as mean±SD of three independent experiments.

MRSA strain 2 = assay type: cell-based, Staphylococcus aureus
Method: as §1, §2, §3

MRSA strain 3 = assay type: cell-based, Staphylococcus aureus
Method: as §1, §2, §3

S. aureus ATCC 6538 = assay type: cell-based, Staphylococcus aureus
Method: as §1, §2, §3

[1] = system: E. coli ATCC 13762 (ATCC reference strain); assay: In vitro time-kill kinetics assay; assay type: cell-based, Escherichia coli; details: peptide at MIC, after 2 hours' incubation
Method: as §3

ESBL strains of E. coli = assay: In vitro time-kill kinetics assay; assay type: cell-based, Escherichia coli; details: peptide at MIC, after 2 hours' incubation, throughout observation period
Method: as §3

[2] = system: MRSA strain 2 (intracellular, HeLa cells); assay: Invasion and protection assay in HeLa cells; assay type: cell-based, Staphylococcus aureus; details: MRSA 2 strain in HeLa cells; 40 μM for 1 h
Method: (§4) The S. aureus ATCC 6538, MRSA strain 2 and MRSA strain 3 invasion assays were conducted as previously described (Colicchio R et al., Antimicrob Agents Chemother 2015; 59:7637-49; Spinosa M R et al. Infect Immun 2007; 75:3594-3603). HeLa cells (ATCC CCL-2) were used for the standard invasion and intracellular viability assays. The cells were cultured in DMEM with 2 mM L-glutamine. The cells were infected at a multiplicity of infection (MOI) of 50 for 1 h, washed twice with PBS1× to eliminate most of the extracellular bacteria, exposed to gentamicin (Sigma-Aldrich) to kill the remaining extracellular bacteria, and then destroyed with saponin (0.5%) to release the intracellular bacteria. To quantify the intracellular staphylococci released by the HeLa cells, the lysed cell suspension was plated on BHI agar, and the number of CFUs was counted the next day. When required, cells were re-incubated in the cell culture medium for various times (3 and 5 hours) after treatment with gentamicin. Treatment with gentamicin was conducted using 105 μM, a concentration 10 times higher than the MIC, for 30 minutes at 37° C. with 5% CO2. Cells were then washed thoroughly with PBS1× to remove the gentamicin and dead extracellular bacteria, and then lysed or re-incubated with medium. To evaluate the protection with the reduced peptide γ2 after treatment with gentamicin, the molecule was added to the sample at the final concentration of 40 µM for 1 hour, then washed twice with PBS1×, and finally destroyed with saponin. As the antibacterial activity of the reduced and oxidised peptide γ2 against S. aureus ATCC 6538 was very similar (Table 1), only the reduced form was used in the test. In all the experiments, the bacteria were centrifuged (60×g) on the cells to start the assay. The experiments were conducted in triplicate, and the data were expressed as mean±SD.

[3] = system: MRSA strain 3 (intracellular, HeLa cells); assay: Invasion and protection assay in HeLa cells; assay type: cell-based, Staphylococcus aureus; details: MRSA 3 strain in HeLa cells; 40 μM for 1 h; all times tested
Method: as §4

[4] = system: S. aureus ATCC 6538 (intracellular, HeLa cells); assay: Invasion and protection assay in HeLa cells; assay type: cell-based, Staphylococcus aureus; details: wild-type strain S. aureus ATCC 6538 in HeLa cells; 40 μM for 1 h; all times tested
Method: as §4

MIC (MRSA strain 1): 1 µM (≈ 2.46 µg/mL)
MIC (MRSA strain 2): 4 to 8 µM
MIC (MRSA strain 3): 1 µM (≈ 2.46 µg/mL)
SMILES: CC[C@H](C)[C@H](NC(=O)[C@H](CCC(N)=O)NC(=O)[C@H](CCCNC(=N)N)NC(=O)[C@H](CCCNC(=N)N)NC(=O)[C@H](CCCCN)NC(=O)[C@@H]1CCCN1C(=O)[C@H](CC(C)C)NC(=O)[C@H](CS)NC(C)=O)C(=O)NCC(=O)N[C@@H](CCCCN)C(=O)N[C@@H](CO)C(=O)N[C@@H](CO)C(=O)N[C@H](C(=O)N[C@@H](CCCNC(=N)N)C(=O)NCC(=O)N[C@@H](CCCNC(=N)N)C(=O)N[C@@H](CCCCN)C(=O)N[C@@H](CO)C(=O)N[C@@H](CS)C(=O)N[C@@H](CCCCN)C(=O)N[C@@H](CCCCN)C(N)=O)[C@@H](C)O [Reduced peptide γ2] (Ac-CLPKRRQIGKSSTRGRKSCKK-NH2)
MBC (MRSA strain 1): 1 µM (≈ 2.46 µg/mL)
MBC (MRSA strain 2): 16 µM (≈ 39.3 µg/mL)
MBC (MRSA strain 3): 4 µM (≈ 9.84 µg/mL)
MBC (S. aureus ATCC 6538): 1 to 2 µM
growth in time-kill assay [1]: total reduction in growth
growth in time-kill assay (ESBL strains of E. coli): total reduction in growth
viable intracellular bacteria (CFU) [2]: bacteriostatic effect
viable intracellular bacteria (CFU) [3]: great reduction in viable intracellular bacteria
viable intracellular bacteria (CFU) [4]: great reduction in viable intracellular bacteria
